# “And” between values parts separate entries of the source, which are not always exact repeats. Identical values can stand only once. Inconclusive results and toxic doses are left out.
# System: P388 leukemia ip, CD2F1 mice, survival T/C
# Assay: NCI In Vivo Anticancer Drug Screen. Data for tumor model P388 Leukemia (intraperitoneal) in CD2F1 (CDF1) mice
# Conditions: endpoint: median survival time, higher = longer survival
# How it was run: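 Mice carrying the transplanted tumor received test compound or vehicle. Survival was recorded in each group, and the value is the treated-group measurement divided by that of the vehicle-treated control group.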
# [1] = dose: 50.0 mg/kg/injection, schedule: Q01DX009 (ip), vehicle: saline with Tween-80
# [2] = dose: 100.0 mg/kg/injection, schedule: Q01DX009 (ip), vehicle: saline with Tween-80
# [3] = dose: 50.0 mg/kg/injection, schedule: Q01DX009 (ip), vehicle: Klucel (hydroxypropylcellulose) (HPC)
# [4] = dose: 100.0 mg/kg/injection, schedule: Q01DX009 (ip), vehicle: Klucel (hydroxypropylcellulose) (HPC)
# [5] = dose: 200.0 mg/kg/injection, schedule: Q01DX009 (ip), vehicle: Klucel (hydroxypropylcellulose) (HPC)
# [6] = dose: 50.0 mg/kg/injection, schedule: Q01DX005 (ip), vehicle: saline with Tween-80
# [7] = dose: 100.0 mg/kg/injection, schedule: Q01DX005 (ip), vehicle: saline with Tween-80
# [8] = dose: 200.0 mg/kg/injection, schedule: Q01DX005 (ip), vehicle: saline with Tween-80
# [9] = dose: 60.0 mg/kg/injection, schedule: Q01DX005 (ip), vehicle: saline with Tween-80
# [10] = dose: 120.0 mg/kg/injection, schedule: Q01DX005 (ip), vehicle: saline with Tween-80
# [11] = dose: 50.0 mg/kg/injection, schedule: Q01DX005 (ip), vehicle: Klucel (hydroxypropylcellulose) (HPC)
# [12] = dose: 240.0 mg/kg/injection, schedule: Q01DX005 (ip), vehicle: saline with Tween-80
smiles,measurement,setting,value
CC1CN1C1=C(F)C(=O)C(N2CC2C)=C(F)C1=O (configuration not stated),T/C,"dose: 1.56 mg/kg/injection, schedule: Q01DX009 (ip), vehicle: Klucel (hydroxypropylcellulose) (HPC)",104 % of control
same,T/C,"dose: 3.12 mg/kg/injection, schedule: Q01DX009 (ip), vehicle: Klucel (hydroxypropylcellulose) (HPC)",106 % of control and 110 % of control and 116 % of control
same,T/C,"dose: 6.25 mg/kg/injection, schedule: Q01DX009 (ip), vehicle: Klucel (hydroxypropylcellulose) (HPC)",105 % of control and 123 % of control
CN(C)c1ccc(C(=N)c2ccc(N(C)C)cc2)cc1 (tested in a mixture with another compound),T/C,"dose: 25.0 mg/kg/injection, schedule: Q01DX009 (ip), vehicle: saline with Tween-80",100 % of control
same,T/C,[1],95 % of control
same,T/C,[2],100 % of control
N[C@@H](C[C@H]1CCC(=O)[C@@H]2O[C@H]12)C(=O)O,T/C,"dose: 100.0 mg/kg/injection, schedule: Q04DX002 (ip), vehicle: saline",100 % of control
same,T/C,"dose: 200.0 mg/kg/injection, schedule: Q04DX002 (ip), vehicle: saline",98 % of control
same,T/C,"dose: 400.0 mg/kg/injection, schedule: Q04DX002 (ip), vehicle: saline",108 % of control
same,T/C,"dose: 600.0 mg/kg/injection, schedule: Q04DX002 (ip), vehicle: saline",112 % of control
O=NN(CCCl)C(=O)N1CCCOC1=O,T/C,"dose: 12.5 mg/kg/injection, schedule: Q01DX001 (ip), vehicle: saline with Tween-80",115 % of control and 121 % of control
same,T/C,"dose: 25.0 mg/kg/injection, schedule: Q01DX001 (ip), vehicle: saline with Tween-80",116 % of control
Cc1ccnc(N=Cc2ccccc2O)c1,T/C,[3],104 % of control
same,T/C,[4],100 % of control
same,T/C,[5],100 % of control
O=C1CCCc2[nH]c3ccc(Cl)cc3c21,T/C,[6],92 % of control
same,T/C,[7],99 % of control
same,T/C,[8],92 % of control
COC(=O)c1cc(-c2cccc3ccccc23)[nH]c(=O)c1C#N,T/C,[9],95 % of control
same,T/C,[10],100 % of control
NC(=O)Nc1ccc(Cc2ccc(NC(N)=O)cc2)cc1,T/C,[3],94 % of control
same,T/C,[4],94 % of control
same,T/C,[5],91 % of control
CC(=O)SCC1C(=O)CCCC1=O,T/C,"dose: 12.5 mg/kg/injection, schedule: Q04DX003 (ip), vehicle: saline with Tween-80",104 % of control
same,T/C,"dose: 25.0 mg/kg/injection, schedule: Q04DX003 (ip), vehicle: saline with Tween-80",101 % of control and 109 % of control
same,T/C,"dose: 50.0 mg/kg/injection, schedule: Q04DX003 (ip), vehicle: saline with Tween-80",100 % of control and 124 % of control
CC(=O)Nc1cc2cc(NS(=O)(=O)c3ccc(Cl)c(Cl)c3)ccc2oc1=O,T/C,[11],89 % of control
same,T/C,"dose: 100.0 mg/kg/injection, schedule: Q01DX005 (ip), vehicle: Klucel (hydroxypropylcellulose) (HPC)",93 % of control
same,T/C,"dose: 200.0 mg/kg/injection, schedule: Q01DX005 (ip), vehicle: Klucel (hydroxypropylcellulose) (HPC)",95 % of control
Nc1nnc(-c2ccc(-c3nnc(N)o3)cc2)o1,T/C,[9],98 % of control
same,T/C,[10],100 % of control
same,T/C,[12],100 % of control
CCCCNC(=O)NC1OC(CO)C(O)C1O (configuration not stated),T/C,"dose: 50.0 mg/kg/injection, schedule: Q01DX005 (ip), vehicle: saline",98 % of control
same,T/C,"dose: 100.0 mg/kg/injection, schedule: Q01DX005 (ip), vehicle: saline",97 % of control
same,T/C,"dose: 200.0 mg/kg/injection, schedule: Q01DX005 (ip), vehicle: saline",100 % of control
O=C(O)CS(=O)NN(c1ccccc1)c1ccccc1 (configuration not stated),T/C,"dose: 100.0 mg/kg/injection, schedule: Q04DX002 (ip), vehicle: saline with Tween-80",102 % of control
same,T/C,"dose: 200.0 mg/kg/injection, schedule: Q04DX002 (ip), vehicle: saline with Tween-80",102 % of control
O=C(c1ncccc1O)N1CCCCC1,T/C,"dose: 12.5 mg/kg/injection, schedule: Q01DX009 (ip), vehicle: distilled water + Tween-80",88 % of control
same,T/C,"dose: 50.0 mg/kg/injection, schedule: Q01DX009 (ip), vehicle: distilled water + Tween-80",92 % of control
same,T/C,"dose: 100.0 mg/kg/injection, schedule: Q01DX009 (ip), vehicle: distilled water + Tween-80",99 % of control
same,T/C,"dose: 200.0 mg/kg/injection, schedule: Q01DX009 (ip), vehicle: distilled water + Tween-80",100 % of control
CCS/C(C#N)=C(/C)c1ccccc1,T/C,[6],101 % of control
same,T/C,[7],106 % of control
same,T/C,[8],108 % of control
O=C1C(=O)c2ccccc2C(O)=C1Sc1ccc2ccccc2c1,T/C,"dose: 3.13 mg/kg/injection, schedule: Q01DX009 (ip), vehicle: saline with Tween-80",100 % of control
same,T/C,"dose: 6.25 mg/kg/injection, schedule: Q01DX009 (ip), vehicle: saline with Tween-80",99 % of control
same,T/C,"dose: 12.5 mg/kg/injection, schedule: Q01DX009 (ip), vehicle: saline with Tween-80",95 % of control
COc1ccc(-n2c(=O)c(N=Nc3ccccc3C)c(O)n(-c3ccccc3Cl)c2=S)cc1,T/C,"dose: 100.0 mg/kg/injection, schedule: Q01DX001 (ip), vehicle: Klucel (hydroxypropylcellulose) (HPC)",100 % of control
same,T/C,"dose: 200.0 mg/kg/injection, schedule: Q01DX001 (ip), vehicle: Klucel (hydroxypropylcellulose) (HPC)",99 % of control
same,T/C,"dose: 400.0 mg/kg/injection, schedule: Q01DX001 (ip), vehicle: Klucel (hydroxypropylcellulose) (HPC)",95 % of control
CCCN(CCC)C(C)C(O)c1ccc2cc(Br)c3ccccc3c2c1 (configuration not stated),T/C,[6],98 % of control
same,T/C,[7],99 % of control
same,T/C,[8],100 % of control
COc1c2occc2c(N=Cc2ccccn2)c2ccc(=O)oc12,T/C,"dose: 6.25 mg/kg/injection, schedule: Q01DX005 (ip), vehicle: Klucel (hydroxypropylcellulose) (HPC)",97 % of control
same,T/C,"dose: 12.5 mg/kg/injection, schedule: Q01DX005 (ip), vehicle: Klucel (hydroxypropylcellulose) (HPC)",97 % of control
same,T/C,"dose: 25.0 mg/kg/injection, schedule: Q01DX005 (ip), vehicle: Klucel (hydroxypropylcellulose) (HPC)",95 % of control
same,T/C,[11],90 % of control
CCOCC(=O)N[C@H]1CCc2cc(OC)c(OC)c(OC)c2-c2ccc(OC)c(=O)cc21,T/C,"dose: 0.31 mg/kg/injection, schedule: Q01DX009 (ip), vehicle: water",150 % of control
same,T/C,"dose: 0.63 mg/kg/injection, schedule: Q01DX009 (ip), vehicle: water",171 % of control
same,T/C,"dose: 1.25 mg/kg/injection, schedule: Q01DX009 (ip), vehicle: water",198 % of control and 221 % of control
CC1=CC(C)(C)Nc2ccc(Cc3ccc4c(c3)C(C)=CC(C)(C)N4)cc21,T/C,[9],101 % of control
same,T/C,[10],94 % of control
same,T/C,[12],95 % of control
CC[n+]1c([S-])nn(C)c1-c1cnccn1,T/C,[6],106 % of control
same,T/C,[7],108 % of control
same,T/C,[8],102 % of control
CN1CCCC(CN2c3ccccc3Sc3ccccc32)C1 (configuration not stated),T/C,"dose: 12.5 mg/kg/injection, schedule: Q01DX005 (ip), vehicle: saline with Tween-80",100 % of control
same,T/C,"dose: 25.0 mg/kg/injection, schedule: Q01DX005 (ip), vehicle: saline with Tween-80",102 % of control
same,T/C,[6],104 % of control and 105 % of control
same,T/C,[7],111 % of control
CCCCCCC(=O)/C=C/c1ccc(OC(=O)c2ccc(C)cc2)cc1,T/C,[1],95 % of control
same,T/C,[2],93 % of control
same,T/C,"dose: 200.0 mg/kg/injection, schedule: Q01DX009 (ip), vehicle: saline with Tween-80",93 % of control
CCNc1ncc2c(n1)N(CC)C(=O)/C(=C\C(=O)OC)N2,T/C,"dose: 37.5 mg/kg/injection, schedule: Q01DX009 (ip), vehicle: saline with Tween-80",94 % of control
same,T/C,"dose: 150.0 mg/kg/injection, schedule: Q01DX009 (ip), vehicle: saline with Tween-80",93 % of control
CCCCCCCC/C=C\CCCCCCCC[N+]1([O-])CCOCC1,T/C,"dose: 50.0 mg/kg/injection, schedule: Q01DX009 (ip), vehicle: saline",102 % of control
same,T/C,"dose: 100.0 mg/kg/injection, schedule: Q01DX009 (ip), vehicle: saline",116 % of control
Cc1ncc(COP(=O)(O)O)c(C2NCCS2)c1O (configuration not stated),T/C,"dose: 60.0 mg/kg/injection, schedule: Q01DX005 (ip), vehicle: saline",102 % of control
same,T/C,"dose: 120.0 mg/kg/injection, schedule: Q01DX005 (ip), vehicle: saline",105 % of control
same,T/C,"dose: 240.0 mg/kg/injection, schedule: Q01DX005 (ip), vehicle: saline",102 % of control
ClCCN(CCCl)c1ccc(/C=N/Nc2c3ccccc3nc3ccccc23)cc1,T/C,"dose: 6.25 mg/kg/injection, schedule: Q01DX009 (ip), vehicle: DMSO",88 % of control
same,T/C,"dose: 12.5 mg/kg/injection, schedule: Q01DX009 (ip), vehicle: DMSO",90 % of control
